Experimental data taken from patent US20220280543A1, “DDX17 AND NLRC4 TARGETING FOR INFLAMMATORY DISEASES” (University of Virginia Patent Foundation, priority 2019, published 2022).

Columns and labels:
caspase-1 = assay: Alu RNA induced caspase-1 activation in THP1 cells after siRNA knockdown; type: cell-based, human; conditions: siRNA knockdown (FIGS. 11A, 11B)
Description: FIGS. 11A and 11B. Ddx17 involved in Alu RNA (SEQ ID NO: 86) induced inflammasome independent of its microprocessor function. DDX17 is a component of microprocessor complexes with DDX5 and Drosha. To test whether the microprocessor function of DDX17 is required for Alu RNA (SEQ ID NO: 86) induced inflammasome, we measured caspase-1 activation in THP cells with DDX5 or Drosha knockdown (siRNA for DDX5: GGAAAUUACAGUUAGAGGU; SEQ ID NO: 89); siRNA for Drosha: GACAAGUUGAUAGGAUAUA; SEQ ID NO: 90). FIG. 11A. siRNA mediated Ddx17 knockdown, but not Ddx5 in THP1 cells, blocked Alu RNA (SEQ ID NO: 86) induced caspase-1 activation. […] The caspase-1 (p20) bands were indicated with black arrows.
We next examined whether DDX5 or DDX17 was the sensor for Alu RNA (SEQ ID NO: 86) induced NLRC4 inflammasome activation. Due to the high degree of similarity in the sequences of DDX5 and DDX17, we designed 3 siRNAs targeting DDX5 alone, DDX17 alone, or both DDX5 and DDX17, and confirmed their target efficiency in THP1 cells (FIG. 11A). […] Therefore, we tested whether Drosha is also involved in SINE RNA-DDX17-NLRC4 axis. […] These observations implicate that DDX17 mediated SINE RNA induced NLRC4 inflammasome is independent of microprocessor function.

NLRP3 inflammasome = assay: LPS+ATP induced NLRP3 inflammasome (caspase-1) after DDX17 knockdown; type: cell-based; conditions: LPS 125 ng/ml plus ATP, siRNA 24 hours before (FIG. 15)
Experimental: (§1) FIG. 15. […] THP1 cell were transfected with siRNA target on DDX17 (siRNA sequence: CCAAUCUGAUGUAUCAGGA; SEQ ID NO: 91), and then 24 hours later, Flagellin (3 μg/ml) or LPS (125 ng/ml) plus ATP ([…]/30 minutes), DOTAP plus LPS was added to the THP1 cells. Supernatants were collected for Caspase-1 detection. […] Loading control show by actin. The caspase-1 precursor is referred as p45, and the active form of caspase-1 as p20. The adaptor protein for inflammasome assembly, apoptosis-associated speck-like protein containing a CARD (ASC) is labeled as ASC. The caspase-1p20) bands were indicated with black arrow.
(§2) We finally examined whether DDX17 has a role in conventional NLRC4 activation by flagellin that requires NAIP and LPS+ATP dependent NLRP3 inflammasome activation. We treated […] with flagellin or LPS+ATP and transfected with siDDX17 and examined NLRC4 or NLRP3 dependent caspase-1 cleavage.

IL-1β = assay: Alu RNA induced IL-1β release in THP1 cells after siRNA knockdown, ELISA; type: cell-based, human; conditions: siRNA knockdown (FIG. 12B)
Description: (§3) FIGS. 12A and 12B. DDX17 knockdown blocks Alu RNA (SEQ ID NO: 86) induced ASC oligomerization and IL-1β release. FIG. 12A. siRNA mediated DDX17 knockdown (siRNA for DDX17: CCAAUCUGAUGUAUCAGGA; SEQ ID NO: 91), but not Ddx5 (siRNA for DDX5: GGAAAUUACAGUUAGAGGU; SEQ ID NO: 89) in THP1 cells, blocked Alu RNA (SEQ ID NO: 86) induced ASC oligomerization. The band of ASC oligomers were indicated by black arrow. FIG. 12B. siRNA mediated DDX17 knockdown, but not Ddx5 in THP1 cells, blocked Alu RNA (SEQ ID NO: 86) induced IL-1β release.
(§4) To further confirm that DDX17 is the sensor for NLRC4, we investigated caspase-1 cleavage by immunoblotting and IL-1β secretion by ELISA in Alu RNA (SEQ ID NO: 86) or mock treated THP1 cells and DDX17 KO BMDMs respectively.

[1] = tested on: CXCL10, IFNB, IL-1β, CASPASE-1 expression; assay: Alu RNA induced type I interferon response and inflammatory priming, qPCR, BMDM with DDX17 knockdown; type: cell-based, mouse; conditions: siRNA 24 hours before Alu RNA 100 pmol, qPCR (FIGS. 14A, 14B)
Experimental: FIGS. 14A and 14B. […] Wild type BMDM cell were transfected with siRNA target on DDX17 (CCAAUCUGAUGUAUCAGGA; SEQ ID NO: 91), and then 24 hours later, BMDM cells were treated with Alu RNA (SEQ ID NO: 86; 100 pmol). Total RNA extracted for qPCR assay.
We previously reported that Alu RNA (SEQ ID NO: 86) induces a type I interferon (IFN) response and inflammatory priming in BMDMs. Since DDX17 is essential for Alu RNA (SEQ ID NO: 86) induced inflammasome activation, we tested whether DDX17 knockdown could affect downstream events of the inflammasome cascade such as the type I IFN response.

ASC oligomerization = assay: Alu RNA induced ASC oligomerization in THP1 cells after siRNA knockdown; type: cell-based, human; conditions: siRNA knockdown (FIG. 12A)
Description: as §3, §4

RPE degeneration = assay: Alu RNA induced RPE degeneration in mice, fundus images and ZO-1 staining; type: in vivo; conditions: mice, subretinal Alu RNA; fundus and ZO-1 (FIGS. 25B, 26)
Experimental: FIGS. 25A and 25B. NLRC4 knockdown blocks Alu RNA (SEQ ID NO: 86) induced ASC oligomerization and RPE degeneration. Human RPE cell treated with siRNA target on NLRC4 (SMARTPOOL siRNA for NLRC4: CAACUGGGCUCCUCUGUAA; SEQ ID NO: 93) and NAIP (SMARTPOOL siRNA for NAIP: GUAAAGAGCUAUAUGGAUA; SEQ ID NO: 94), 24 hours later, treated with Alu RNA (SEQ ID NO: 86 at 100 pmol) FIG. 25A. […] The band of ASC oligomers was indicated by black arrow. […] The hyperdense areas due to the RPE degeneration in fundus images and ZO-1 disorganizations in RPE sheet are indicated by white arrows.
FIG. 26. […] Wilde type of C57/B6 mice were intravitreally injected with siRNA target on Ddx17 (siRNA for Ddx17: GGCUAGAUGUGGAAGAUGU; SEQ ID NO: 95), and two days later, Nlrc4^−/−, Naip1-6^−/−, mice and Ddx17 knockdown mice were subretinally injected with Alu RNA (SEQ ID NO: 86). […] The hyperdense areas due to the RPE degeneration in fundus images and ZO-1 disorganizations in RPE sheet are indicated by white arrows.
Next, we asked whether Alu RNA (SEQ ID NO: 86) also triggered NLRC4 inflammasome activation in human RPE cells. We performed immunofluorescence staining experiments to examine whether Alu RNA (SEQ ID NO: 86) can induce NLRC4 speck formation in human RPE cells. We noticed punctate structures resembling specks of NLRC4 in human RPE cells in response to Alu RNA (SEQ ID NO: 86) treatment (FIG. 24A). […] We further investigated downstream events of NLRC4 inflammasome activation by studying NLRC4-induced ASC oligomerization, a critical step involved in caspase-1 cleavage. NLRC4 siRNA, when co-administered with Alu RNA (SEQ ID NO: 86), blocked ASC oligomerization in vitro (FIG. 25A) and RPE degeneration in vivo (FIG. 25B).
We delivered Alu RNA (SEQ ID NO: 86) or Alu RNA (SEQ ID NO: 86)+siDDX17 subretinally in WT or NLRC4 KO or NAIP1-6 KO mice and examined for RPE degeneration using fundus photos and ZO-1 staining as described previously.

NLRC4 inflammasome = assay: Flagellin induced classical NLRC4 inflammasome (caspase-1) after DDX17 knockdown; type: cell-based; conditions: Flagellin 3 μg/ml, siRNA 24 hours before (FIG. 15)
Experimental: as §1, §2

siDDX17: siRNA for DDX17: CCAAUCUGAUGUAUCAGGA; SEQ ID NO: 91 (chemistry not fully specified)
caspase-1 cleavage in Alu RNA treated THP1 cells (caspase-1): inhibited
caspase-1 cleavage in Alu RNA treated THP1 cells (caspase-1; listed as DDX17 siRNA): reduce
LPS+ATP induced NLRP3 inflammasome, caspase-1 levels (NLRP3 inflammasome): does not affect
Alu RNA induced IL-1β release, THP1 cells, ELISA (IL-1β): significantly reduced
expression of caspase-1, CXCL10, IFNβ, IL-18 and IL-1β genes after Alu RNA [1]: did not affect
Alu RNA induced ASC oligomerization, THP1 cells (ASC oligomerization): prevented
Alu RNA induced RPE degeneration in vivo, effect of siRNA (RPE degeneration): rescued from this phenotype
flagellin induced NLRC4 inflammasome, caspase-1 levels (NLRC4 inflammasome): does not affect
